Measured values from a melting point compilation (Tetko et al.; mined from patent text by program, amines drawn as free bases though some values may be those of a salt).

| SMILES | melting point |
| --- | --- |
| CSC(=S)NN=Cc1nc(C)[nH]c1C | 279 to 281 °C |
| CCCn1nc(C(C)C)c(C(=O)OCOC(=O)C(C)(C)C)c1Cc1ccc(-c2ccccc2-c2nnn[nH]2)cc1 | 62 to 67 °C |
| COc1ccc(CN(C)CCCc2ccc(NC(=O)c3cccc4c(=O)c5ccccc5[nH]c34)cc2)cc1OC | 112 °C |
| CN(CCN(CCC12CC3CC(CC(C3)C1)C2)C(=O)NCCCc1ccncc1)C(=O)CC(C)(C)C | 101 to 102 °C |
| CNC(=O)Oc1ccc2c(c1)c1c(n2C)C2(CC1)CCN(Cc1ccccc1)CC2 | 189 to 190 °C |
| Cc1ccccc1Cn1cccc1C(=O)CC(=O)C(=O)O | 176 to 178 °C |
| CN1C(=O)CN(C(=O)NC2C3CC4CC(C3)CC2C4)C(c2ccccc2)c2ccccc21 (racemic) | 243 to 244 °C |
| NC(=S)NN=C(CCC(=O)NCc1ccccc1)c1ccccc1 | 162 to 164 °C |
| N=C(N)NCCc1ccc(OCCC2Oc3ccccc3N(Cc3cccc4ccccc34)C2=O)cc1 (centres undefined) | 75 to 80 °C |
| O=C(O)CCCCCCCCN1NC(c2ccccc2)=C(c2ccccc2)NC1=O | 97 to 100 °C |
| COc1ccccc1Cc1ccc2nc(N)nc(N)c2c1 | 214 to 215 °C |
| O=Cc1cccc(-c2ccoc2)n1 | 59 to 61 °C |
| CC(C)Cc1nc2ccc(Br)cc2c(-c2ccccc2)c1CN | 129 to 130 °C |
| CCCCn1ccc(Cc2cnc(N[N+](=O)[O-])[nH]c2=O)cc1=O | 198 to 201 °C |
| Cc1cccc(-c2[nH]nc(C(F)(F)F)c2-c2ccncc2)c1 | 237 to 239 °C |
| CC(c1ccc2ncccc2c1)n1nnc2ccc(-c3ccc(C(N)=O)c(Cl)c3)nc21 (centres undefined) | 140 to 143 °C |
| CN(C)CCCN(C)C(=O)NC(Cc1c[nH]c2ccccc12)C(=O)CCc1cc(C(F)(F)F)cc(C(F)(F)F)c1 (centres undefined) | 135 to 137 °C |
| CNc1cccc(S(N)(=O)=O)n1 | 124 to 126 °C |
| CCc1nc2ccccc2c(=O)n1-c1ccc(F)cc1 | 178 °C |
| Cn1c(=O)cc(C(F)(F)F)[nH]c1=O | 235 to 237 °C |
| CCCCc1nn(-c2cccc([N+](=O)[O-])c2)c(=O)n1Cc1ccc(-c2ccccc2S(N)(=O)=O)cc1 | 73 to 76 °C |
| O=C(Nc1cccc(-c2ccnc3c(C(=O)c4cccs4)cnn23)c1)c1ccccc1 | 211 to 213 °C |

Results, then the compound that gave them:

| melting point | SMILES |
| --- | --- |
| 214 to 216 °C | Cc1c(C(=O)O)oc2c(C(=O)c3ccc(Cl)cc3)cc(C(C)(C)C)c(O)c12 |
| 121 to 123 °C | COc1cc(Br)c(OC)c2c1C=C([N+](=O)[O-])CC2 |
| 166 °C | C(=Nc1onc2c1CCC2)c1ccccc1 |
| 258 to 261 °C | Cn1cc(S(C)(=O)=O)c(=O)c2sccc21 |
| > 360 °C | CN1CCN(C(=O)c2ccc3c([N+](=O)[O-])c(O)c(O)cc3c2)CC1 |
| 237 to 239 °C | NS(=O)(=O)c1cc(C(=O)O)c(NCc2ccccc2)cc1Oc1ccccc1 |
| 163 to 165 °C | CC(C)c1ccccc1Sc1c(O)cc(-c2ccc(OCc3ccccc3)cc2)oc1=O |
| 115 to 116 °C | CCOC(=O)C(Cc1ccccc1)C(=O)Nc1ccc(CP(=O)(OCC)OCC)cc1 (centres undefined) |
| 154 to 155 °C | COc1cccc(C2(O)c3c(C)c(NC(=O)CC(C)(C)C)c(C)c(C)c3OC2(C)C)c1 (centres undefined) |
| 242 °C | O=C(Nc1ccccn1)Nc1cccc2c1C1CC3(CCN1C2=O)SCCS3 (centres undefined) |
| 95 to 96 °C | COc1ccc2c(c1CC=C(C)C)OC(c1ccc(O)cc1O)CC2 (centres undefined) |
| 100 to 106 °C | C[C@H](OC(c1ccccc1)(c1ccccc1)c1ccccc1)C(=O)O |
| 138 to 139 °C | CNS(=O)(=O)c1cc(C(=O)OC)cc(N2CCCC2)c1Oc1ccccc1 |
| 192 to 193 °C | CC(C)Oc1c(C(=O)O)sc2c1CS(=O)CC2 (centres undefined) |
| 84 °C | CCCCC(=O)Oc1cccc(NC(=O)C=C(C)OC)c1 |
| 183 to 185 °C | O=C(O)c1ccc(C(O)(C(F)(F)F)C(F)(F)F)cc1C(=O)O |
| 85 to 88 °C | CC(ON1C(C)(C)CC(O)CC1(C)C)C(=O)NCCCN(C)C (centres undefined) |
